The record followed here is patent publication US20060004012A1, “Compounds, pharmaceutical compositions and methods for use in treating metabolic disorders” (priority 2004, published 2006).

For this assay, the target named is T1, human GPR40 (Homo sapiens, UniProt O14842).
T1 construct: expressed in transfected cells; host or cells: CHO cells, transiently transfected with Lipofectamine 2000 and co-transfected with an aequorin expression vector (Euroscreen)
T1 sequence (O14842 whole entry): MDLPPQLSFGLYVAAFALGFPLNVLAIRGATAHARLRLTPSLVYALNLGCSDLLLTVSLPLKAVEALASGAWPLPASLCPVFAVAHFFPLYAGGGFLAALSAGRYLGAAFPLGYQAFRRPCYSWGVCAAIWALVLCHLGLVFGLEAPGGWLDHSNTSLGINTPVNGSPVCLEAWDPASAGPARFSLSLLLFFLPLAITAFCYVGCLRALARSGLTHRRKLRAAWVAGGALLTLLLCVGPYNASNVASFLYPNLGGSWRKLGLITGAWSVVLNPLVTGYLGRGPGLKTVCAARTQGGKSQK
Kind of assay: Cell-based aequorin assay using human GPR40. The conditions noted are these: activation of human GPR40; CHO cells transfected with GPR40 and aequorin expression vectors; aequorin luminescence, area-under-curve 2-20 seconds; read-out: Relative EC50. Here is the method:
A cell-based aequorin assay may be employed to characterize the modulatory activity of compounds on the GPR40 signaling pathway. In an exemplary assay, CHO cells are transfected in a 15 cm plated containing 14 million cells with 5 μg of GPR40 expression vector and 5 μg of Aequorin expression vector (Euroscreen) using Lipofectamine 2000 (Invitrogen). After 17-24 hours post-transfection, cells are washed with phosphate buffered saline (PBS) and detached from the tissue culture dish with 2 mL of trypsin (0.25%(w/v)). Trypsinization is halted with 28 mL of Hanks Buffered Salt Solution containing 20 mM Hepes (H/HBSS) and 0.01% fatty acid-free bovine serum albumin (BSA) or 0.625% fatty acid-free human serum albumin (HSA). Coelantrazine is added to 1 ug/mL and the cells are incubated for 2 hours at room temperature. Cells are gently mixed every 15 minutes. Compounds are dissolved in dimethyl sulfoxide for preparation of 10 mM stock solutions. Compounds are diluted in H/HBSS containing either 0.01% BSA or 0.625% HSA. Serial dilutions of the test compounds are prepared to determine dose response.
Aequorin luminescence measurements are made using an EG&G Berthold 96-well luminometer and the response is measured over a 20 second interval after cells and compounds were mixed. The area-under-curve from 2-20 seconds is plotted to determine dose reponse. The EC50 (effective concentration to reach 50% maximal response) is determined from the dose response plot. […]
As to `CC#CC(CC(=O)O)c1ccc(OCc2nc(-c3ccc(C(F)(F)F)cc3)oc2C)cc1` (centres unmarked) [Compound 18, 3-{4-[5-Methyl-2-(4-trifluoromethyl-phenyl)-oxazol-4-ylmethoxy]-phenyl}-hex-4-ynoic acid], the EC50 (usually the concentration at which the effect is half-maximal) is 10 to 100 nM.
Next, `CC#CC(Cc1nnn[nH]1)c1ccc(OCc2ccccc2C)cc1` (centres unmarked) [Compound 23, 5-{2-[4-(2-Methyl-benzyloxy)-phenyl]-pent-3-ynyl}-1H-tetrazole]: 1000 to 10000 nM; `CC#CC(CC(=O)Nc1nccs1)c1ccc(OCc2ccc(OC)cc2)cc1` (centres unmarked) [Compound 24, 3-[4-(4-Methoxy-benzyloxy)-phenyl]-hex-4-ynoic acid thiazol-2-ylamide]: 100 to 1000 nM.
Turning to `CC#CC(CC(=O)Nc1nnn[nH]1)c1ccc(OCc2ccc(OC)cc2)cc1` (centres unmarked) [Compound 25.1], the half-maximal effective concentration (EC50) lay in the range of 1000 to 10000 nM.
Regarding `CC#CC(CC(=O)O)c1ccc(OCc2nn(-c3ccccc3)nc2C)cc1` (centres unmarked) [Compound 26, 3-[4-(5-Methyl-2-phenyl-2H-[1,2,3]triazol-4-ylmethoxy)-phenyl]-hex-4-ynoic acid], the concentration for a half-maximal effect (EC50) was 10 to 100 nM.
With `CC#CC(CC(=O)O)c1ccc(OCc2noc(-c3ccc(C(F)(F)F)cc3)n2)cc1` (centres unmarked) [Compound 27.1] the figure was 100 to 1000 nM.
As for `CC#CC(CC(=O)O)c1ccc(SCc2ccccc2C)cc1` (centres unmarked) [Compound 28, 3-[4-(2-Methyl-benzylsulfanyl)-phenyl]-hex-4-ynoic acid], the EC50 is 100 to 1000 nM.
On to `C=CCC(CC(=O)O)c1ccc(OCc2ccc(OC)cc2)cc1` (centres unmarked) [Compound 34.4], for which the EC50 was in the range of 1000 to 10000 nM.
With `COc1ccc(COc2ccc(C(C=C(C)C)CC(=O)O)cc2)cc1` (centres unmarked) [Compound 34.5], the 50% effective concentration (EC50) was 100 to 1000 nM.
Regarding `CC#CC(CC(=O)O)c1ccc(NCc2cccc(OC)c2)cc1` (centres unmarked) [Compound 36.1], the EC50 lay within 100 to 1000 nM.
For the compound `CC#CC(CC(=O)O)c1ccc(N(Cc2cccc(OC)c2)Cc2cccc(OC)c2)cc1` (centres unmarked) [Compound 36.2], the EC50 lay within 100 to 1000 nM.
Next, `CC#C[C@@H](CC(=O)O)c1ccc(OCc2ccc(OC)cc2)cc1` [Compound 39.7, (3S)-3-[4-(4-Methoxy-benzyloxy)-phenyl]-hex-4-ynoic acid]: 10 to 100 nM.
`CC#C[C@H](CC(=O)O)c1ccc(OCc2ccc(OC)cc2)cc1` [Compound 40.5, (3R)-3-[4-(4-Methoxy-benzyloxy)-phenyl]-hex-4-ynoic acid]: the EC50 lay in the range of 1000 to 10000 nM.
For the compound `C#CC(CC(=O)O)c1ccc(OCc2ccc(OC)cc2)cc1` (centres unmarked) [Compound 41], the EC50 was 100 to 1000 nM.
With `CC(C)(C)OC(=O)N[C@@H](CC(=O)O)c1ccc(OCc2cccc(Oc3ccc(F)cc3)c2)cc1` [Compound 42.11, (S)-3-tert-Butoxycarbonylamino-3-{4-[3-(4-fluoro-phenoxy)-benzyloxy]-phenyl}-propionic acid] the figure was 100 to 1000 nM.
For the compound `O=C(O)CC(c1ccc(F)cc1)c1ccc(OCc2cccc(-c3ccc(C(F)(F)F)cc3)c2)cc1` (centres unmarked) [Compound 46.1, 3-(4-fluorophenyl)-3-[4-(4′-trifluoromethyl-biphenyl-3-ylmethoxy)-phenyl]-propionic acid], the EC50 lay in the range of 100 to 1000 nM.
Consider `O=C(O)CC(c1ccc(OCc2cccc(-c3ccc(C(F)(F)F)cc3)c2)cc1)c1nccs1` (centres unmarked) [Compound 56], for which the EC50 fell in the range of 100 to 1000 nM.
Turning to `O=C(O)CC(c1ccc(OCc2cccc(-c3ccc(C(F)(F)F)cc3)c2)cc1)n1cccn1` (centres unmarked) [Compound 62.3], the 50% effective concentration (EC50) fell in the range of 10 to 100 nM.
Turning to `CCCCOc1ccc(C)cc1-c1ccc(COc2ccc(C(CC(=O)O)c3ccnn3C)cc2)cc1` (centres unmarked) [Compound 66.5], the EC50 is 100 to 1000 nM.
For `Cc1cnc(C(CC(=O)O)c2ccc(OCc3cccc(-c4ccc(C(F)(F)F)cc4)c3)cc2)s1` (centres unmarked) [Compound 70.1], the concentration for a half-maximal effect (EC50) is 1000 to 10000 nM.
With `O=C(O)CC(c1ccc(OCc2cccc(-c3ccc(C(F)(F)F)cc3)c2)cc1)c1cccnc1` (centres unmarked) [Compound 70.2] the figure was 100 to 1000 nM; with `Cc1ccccc1COc1ccc(C(C#CC(C)C)CC(=O)O)cc1` (centres unmarked) [Compound 71], 100 to 1000 nM; with `Cc1ccccc1COc1ccc(C(C#CC2CC2)CC(=O)O)cc1` (centres unmarked) [Compound 72], 100 to 1000 nM.
`CC#CC(CC(=O)O)c1ccc(N(C)Cc2cccc(OC)c2)cc1` (centres unmarked) [Compound 73]: the half-maximal effective concentration (EC50) was in the range of 1000 to 10000 nM.
In the case of `CC#CC(CC(=O)O)c1ccc(NC(=O)c2cccc(OC)c2)cc1` (centres unmarked) [Compound 74], the EC50 lay in the range of 1000 to 10000 nM.
As to `Cc1ccccc1COc1ccc(C(C#CC(F)(F)F)CC(=O)O)cc1` (centres unmarked) [Compound 75], the EC50 was over 10000 nM.
With `CC#CC(CC(=O)O)c1ccc(OCc2cn(-c3ccc(Cl)cc3)nn2)cc1` (centres unmarked) [Compound 76], the concentration for a half-maximal effect (EC50) was 1000 to 10000 nM.
For the compound `CC#CC(CC(=O)O)c1ccc(OCc2cc(-c3ccccc3)no2)cc1` (centres unmarked) [Compound 77], the EC50 lay in the range of 100 to 1000 nM.
As to `CC#CC(CC(=O)O)c1ccc(OCc2ccc(-c3nc4ccccc4[nH]3)cc2)cc1` (centres unmarked) [Compound 78], the concentration for a half-maximal effect (EC50) is 1000 to 10000 nM.
For `CC#CC(CC(=O)O)c1ccc(OCc2ccc(-n3cncn3)cc2)cc1` (centres unmarked) [Compound 79], the concentration for a half-maximal effect (EC50) lay within 1000 to 10000 nM.
For the compound `CC#C[C@@H](CC(=O)O)c1ccc(OCc2csc(-c3ccc(C(F)(F)F)cc3)n2)cc1` [Compound 80], the half-maximal effective concentration (EC50) was under 10 nM.
Regarding `CC#CC(CC(=O)NS(C)(=O)=O)c1ccc(OCc2ccc(OC)cc2)cc1` (centres unmarked) [Compound 81], the EC50 fell in the range of 1000 to 10000 nM.
In the case of `COc1cccc(CN(Cc2cccc(OC)c2)c2ccc(N(CC(=O)O)c3ccccc3)cc2)c1` [Compound 82.1], the 50% effective concentration (EC50) was under 10 nM.
Next, `COc1cccc(CNc2ccc(N(CC(=O)O)c3ccccc3)cc2)c1` [Compound 82.2]: under 10 nM; `O=C(O)CN(c1ccccc1)c1ccc(NCc2cccc(Oc3ccccc3)c2)cc1` [Compound 82.3]: under 10 nM.
Consider `O=C(O)CN(c1ccccc1)c1ccc(NC(=O)Cc2ccccc2)cc1` [Compound 82.4], for which the concentration giving a half-maximal response (EC50) was 10 to 100 nM.
As to `O=C(O)CN(c1ccccc1)c1ccc(NC(=O)CCc2ccccc2)cc1` [Compound 82.5], the concentration for a half-maximal effect (EC50) was under 10 nM.
For `COc1cccc(/C=C/C(=O)Nc2ccc(N(CC(=O)O)c3ccccc3)cc2)c1` [Compound 82.6], the EC50 is under 10 nM.
In the case of `CC(=O)N[C@@H](CC(=O)O)c1ccc(OCc2cccc(Oc3ccc(F)cc3)c2)cc1` [Compound 83], the concentration for a half-maximal effect (EC50) lay in the range of 1000 to 10000 nM.
For `O=C(O)CC(c1ccccc1)c1ccc(OCc2cccc(Oc3ccccc3)c2)cc1` (centres unmarked) [Compound 84.1], the EC50 lay in the range of 10 to 100 nM.
As to `Cc1ccccc1C(CC(=O)O)c1ccc(OCc2cccc(Oc3ccccc3)c2)cc1` (centres unmarked) [Compound 84.4], the concentration giving a half-maximal response (EC50) was in the range of 100 to 1000 nM.
As to `O=C(O)CC(c1ccc(Cl)cc1)c1ccc(OCc2cccc(Oc3ccccc3)c2)cc1` (centres unmarked) [Compound 84.5], the 50% effective concentration (EC50) was 100 to 1000 nM.
Regarding `O=C(O)CC(c1ccc(OCc2cccc(Oc3ccccc3)c2)cc1)c1cccc(Cl)c1` (centres unmarked) [Compound 84.6], the EC50 is 100 to 1000 nM.
On to `COc1ccc(C(CC(=O)O)c2ccc(OCc3cccc(Oc4ccccc4)c3)cc2)cc1` (centres unmarked) [Compound 84.7], for which the EC50 was 100 to 1000 nM.
With `COc1cccc(C(CC(=O)O)c2ccc(OCc3cccc(Oc4ccccc4)c3)cc2)c1` (centres unmarked) [Compound 84.8] the figure was 100 to 1000 nM; with `O=C(O)CC(c1ccc(OCc2cccc(Oc3ccccc3)c2)cc1)c1ccc(C(F)(F)F)cc1` (centres unmarked) [Compound 85.1], 1000 to 10000 nM; with `O=C(O)CC(c1ccc(OCc2cccc(Oc3ccccc3)c2)cc1)c1cccc(C(F)(F)F)c1` (centres unmarked) [Compound 85.2], 100 to 1000 nM.
